Experimental data taken from patent US11382877B2, “Formulation of (E)-2,4,6-trimethoxystyryl-3-[(carboxymethyl)amino]-4-methoxybenzylsulphone with enhanced stability and bioavailability” (ONCONOVA THERAPEUTICS, INC., priority 2017, dated 2022).
Structures can show the parent of a compound that is named as a salt.

Experiments:
[1] = test system: immature bone marrow cells; assay: Higher risk MDS patients who previously failed Vidaza or Dacogen; assay type: in vivo; settings: higher risk MDS patients after failure of azacitidine or decitabine
Description: In another embodiment, the efficacy of Rigosertib was shown in higher risk MDS patients who had previously failed treatment with Vidaza (azacitidine) or Dacogen (decitabine). […] These patients experienced at least a 50 percent decrease or stabilization in the number of immature bone marrow cells, and their median survival was about 36 weeks.

[2] = administered orally; cited from earlier work
[3] = Phase 2 study in lower risk transfusion-dependent MDS patients, continuous vs intermittent oral administration, urinary adverse events; assay type: in vivo
Protocol: Soft gelatin capsule of Rigosertib was tested in this phase 2 study in LR (Lower Risk intermediate-1 or low risk per IPSS classification) transfusion-dependent MDS patients. The capsules (560 mg) were administered twice a day, under fasting conditions, approximately 12 hours apart. The total dose of drug was 1120 mg per day. Various treatment regimens were tested: • Continuous administration, i.e 4 out of 4 weeks. 9 patients were treated. • Intermittent administration; i.e 2 weeks on and one week off. 35 patients were treated. Safety assessment: medical history, physical examination, vital signs (blood pressure, temperature, respiration rate, and pulse), weight, standard 12-lead ECG, laboratory evaluations, and toxicity and AE assessments were monitored throughout the study. Urinary Adverse Events are pollakiuria, micturition urgency, urinary tract pain, hematuria and dysuria.

[4] = test system: immature bone marrow cells (blasts); assay: Intravenous infusion trials in MDS patients; assay type: in vivo
Protocol: According to one embodiment, Rigosertib was given as an intravenous infusion to MDS patients. In one trial, patients received 800 mg Rigosertib for two to five days every other week. According to another embodiment, patients received 650 to 1,700 mg Rigosertib for three to six days every other week. According to yet another embodiment, patients were initially treated with 800 mg to 1,500 mg Rigosertib for two days every week for three weeks followed by one week without treatment. The treatment schedule in these studies was later changed to 1,800 mg Rigosertib per day for three days every other week.

[5] = Phase II, Part 2 study of shorter spacing between two oral doses with azacitidine, urinary adverse events; assay type: in vivo, patients; settings: doses administered about 8 hours apart
Protocol: This study was conducted in patients with high risk MDS. RAEB-t (Refractory Anemia with Excess Blasts in Transformation)/non-proliferative AML were eligible but patients with CMML (Chronic Myelomonocytic Leukemia) were excluded.
The Phase II, Part 2 component of the study consisted of 2 cohorts of up to 40 evaluable patients randomized 1:1 into 2 cohorts of up to 20 patients each to receive 1120 mg of rigosertib over 24 hours: either 560 mg in the morning before breakfast in the fasting state and 560 mg in the afternoon, or 840 mg in the morning before breakfast in the fasting state and 280 mg in the afternoon. The afternoon dose in both cohorts must be administered at 3 PM (±1 hr) at least 2 hours after lunch. Each cohort will be stratified among HMA (hypomethylating agents) naïve and HMA refractory patients.
Each patient was required to complete a diary indicating the day and time of drug intake and record daily urinary dipstick pH and microscopic hematuria test. Rigosertib was supplied as 280 mg and 70 mg (in the event that different doses are needed) capsules by Onconova. […]
Safety assessment: medical history, physical examination, vital signs (blood pressure, temperature, respiration rate, and pulse), weight, standard 12-lead ECG, laboratory evaluations, and toxicity and AE assessments were monitored throughout the study. […]

[6] = 560 mg bid q12 hrs, intermittent 2 weeks on/1 week off, n = 35

## COc1cc(OC)c(/C=C/S(=O)(=O)Cc2ccc(OC)c(NCC(=O)O)c2)c(OC)c1 [Rigosertib, (E)-2,4,6-trimethoxystyryl-3-[(carboxymethyl)amino]-4-methoxybenzylsulphone sodium salt]
[1]
  Decrease or stabilization in the number of immature bone marrow cells: ≥ 50%
  Median survival: about 36 weeks
[2]
  Common adverse event: urothelial toxicity
[3]; [6]
  Incidence of Urinary AEs, Grade 1/2 (% of Patients): 71%
  Incidence of Urinary AEs, Grade 1/2, number of patients: 25
  Incidence of Urinary AEs, Grade 3 (% of Patients): 23%
  Incidence of Urinary AEs, Grade 3, number of patients: 8
[3]; continuous administration 4 out of 4 weeks, 560 mg twice a day
  Urinary adverse events (in words): high urinary adverse events
[3]; intermittent administration 2 weeks on and one week off, 560 mg twice a day
  Tolerability compared to continuous administration: better tolerated
[4]
  Decrease or stabilization in the number of immature bone marrow cells (blasts): ≥ 50%
[5]
  Incidence of urinary adverse events (in words): dramatic reduction
